Common to all, as to format: cell-based
Holding throughout (settings): compounds at 50 nM and 500 nM

One experiment concerns the target T1, IKZF1 (Homo sapiens, UniProt Q13422+Q96SW2).
T1 construct: The supernatant was aspirated as the extracted total cell protein; endogenous in cells; host or cells: human peripheral blood mononuclear cells (hPBMCs)
In words: Western blot degradation of IKZF1 in hPBMCs (24 h). The method in brief:
(§1)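 Read-out is Western blot band grayscale, divided by internal control band and normalised to give percent target protein remaining; degradation rate is 1 minus that value. Cells were human PBMCs exposed to compound at 50 nM and 500 nM for 24 hours.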
In general terms: A western blot detects proteins with antibodies after separation by electrophoresis.

The next experiment addresses T2, CK1α (Homo sapiens, UniProt P48729+Q96SW2).
T2 construct: The supernatant was aspirated as the extracted total cell protein; endogenous in cells; host or cells: human peripheral blood mononuclear cells (hPBMCs)
Description: Western blot degradation of CK1α in hPBMCs (24 h). The method in brief: as §1

Another experiment concerns the target T3, IKZF2 (Homo sapiens, UniProt Q96SW2+Q9UKS7).
T3 construct: The supernatant was aspirated as the extracted total cell protein; endogenous in cells; host or cells: human peripheral blood mononuclear cells (hPBMCs)
In words: Western blot degradation of IKZF2 in hPBMCs (24 h). The method in brief: as §1

A further experiment concerns the target T4, IKZF3 (Homo sapiens, UniProt Q96SW2+Q9UKT9).
T4 construct: The supernatant was aspirated as the extracted total cell protein; endogenous in cells; host or cells: human peripheral blood mononuclear cells (hPBMCs)
In words: Western blot degradation of IKZF3 in hPBMCs (24 h). Summed up:
as §1

The next experiment concerns the target T5, WEE1 (Homo sapiens, UniProt P30291+Q96SW2).
T5 construct: The supernatant was aspirated as the extracted total cell protein; endogenous in cells; host or cells: human peripheral blood mononuclear cells (hPBMCs)
Description: Western blot degradation of WEE1 in hPBMCs (24 h). The method in brief: as §1

The target of another experiment is T6, GSPT1 (Homo sapiens, UniProt P15170+Q96SW2).
T6 construct: The supernatant was aspirated as the extracted total cell protein; endogenous in cells; host or cells: human peripheral blood mononuclear cells (hPBMCs)
In words: Western blot degradation of GSPT1 in hPBMCs (24 h). The method in brief: as §1

T4 sequence (Q9UKT9 whole entry): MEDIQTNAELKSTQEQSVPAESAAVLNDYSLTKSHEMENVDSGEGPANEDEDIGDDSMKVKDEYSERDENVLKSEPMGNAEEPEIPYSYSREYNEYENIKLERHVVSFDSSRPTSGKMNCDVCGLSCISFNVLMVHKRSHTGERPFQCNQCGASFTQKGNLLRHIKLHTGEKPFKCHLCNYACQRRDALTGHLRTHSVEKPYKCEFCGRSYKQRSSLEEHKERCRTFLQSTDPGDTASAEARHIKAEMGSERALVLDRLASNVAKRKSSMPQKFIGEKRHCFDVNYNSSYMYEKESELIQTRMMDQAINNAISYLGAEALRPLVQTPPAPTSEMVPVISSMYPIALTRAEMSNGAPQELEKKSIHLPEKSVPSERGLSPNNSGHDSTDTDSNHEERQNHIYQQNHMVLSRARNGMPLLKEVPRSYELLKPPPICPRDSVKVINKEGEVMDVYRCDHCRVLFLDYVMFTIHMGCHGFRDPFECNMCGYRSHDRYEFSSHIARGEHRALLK
T4 sequence (Q96SW2 whole entry): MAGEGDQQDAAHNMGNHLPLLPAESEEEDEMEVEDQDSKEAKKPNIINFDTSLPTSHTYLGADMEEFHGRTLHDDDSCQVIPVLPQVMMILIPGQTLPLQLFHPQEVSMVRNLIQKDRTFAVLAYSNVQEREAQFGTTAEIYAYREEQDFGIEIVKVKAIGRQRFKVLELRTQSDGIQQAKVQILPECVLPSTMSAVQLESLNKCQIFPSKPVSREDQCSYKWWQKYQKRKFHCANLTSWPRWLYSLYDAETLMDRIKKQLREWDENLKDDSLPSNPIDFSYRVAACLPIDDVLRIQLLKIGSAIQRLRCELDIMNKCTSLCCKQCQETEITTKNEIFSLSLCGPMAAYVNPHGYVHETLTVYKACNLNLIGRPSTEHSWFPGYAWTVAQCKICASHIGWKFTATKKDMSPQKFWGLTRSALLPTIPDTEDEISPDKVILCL
T4 sequence (Q16531 whole entry partner): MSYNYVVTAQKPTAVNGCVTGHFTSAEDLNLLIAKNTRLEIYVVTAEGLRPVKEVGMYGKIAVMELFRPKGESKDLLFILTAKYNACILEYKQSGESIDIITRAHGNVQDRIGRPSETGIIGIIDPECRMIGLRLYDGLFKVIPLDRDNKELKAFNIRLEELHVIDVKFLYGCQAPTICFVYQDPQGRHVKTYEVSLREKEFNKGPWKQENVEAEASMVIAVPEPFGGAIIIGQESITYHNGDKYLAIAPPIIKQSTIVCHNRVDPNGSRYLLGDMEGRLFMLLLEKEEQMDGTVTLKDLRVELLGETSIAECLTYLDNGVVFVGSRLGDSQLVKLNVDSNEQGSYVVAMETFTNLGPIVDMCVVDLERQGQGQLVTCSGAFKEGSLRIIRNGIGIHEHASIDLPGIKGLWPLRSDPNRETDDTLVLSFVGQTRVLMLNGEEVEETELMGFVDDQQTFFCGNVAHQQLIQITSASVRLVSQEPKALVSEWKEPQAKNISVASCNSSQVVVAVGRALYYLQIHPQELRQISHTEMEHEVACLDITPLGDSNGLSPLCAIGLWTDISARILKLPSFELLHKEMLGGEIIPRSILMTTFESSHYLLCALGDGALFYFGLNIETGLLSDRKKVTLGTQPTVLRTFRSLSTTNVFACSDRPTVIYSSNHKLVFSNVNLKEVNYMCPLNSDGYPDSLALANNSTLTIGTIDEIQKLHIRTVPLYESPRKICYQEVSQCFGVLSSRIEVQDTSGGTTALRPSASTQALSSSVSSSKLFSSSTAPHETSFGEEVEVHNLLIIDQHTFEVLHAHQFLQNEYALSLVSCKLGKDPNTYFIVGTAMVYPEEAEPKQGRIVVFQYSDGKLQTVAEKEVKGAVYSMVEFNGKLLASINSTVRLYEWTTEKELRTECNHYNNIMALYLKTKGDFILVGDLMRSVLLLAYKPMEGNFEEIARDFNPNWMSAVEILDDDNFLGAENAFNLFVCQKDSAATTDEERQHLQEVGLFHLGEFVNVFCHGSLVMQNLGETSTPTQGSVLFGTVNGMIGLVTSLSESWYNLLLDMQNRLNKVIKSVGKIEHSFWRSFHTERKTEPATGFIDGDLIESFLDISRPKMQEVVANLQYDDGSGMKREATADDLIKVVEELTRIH
T1 sequence (Q13422 whole entry): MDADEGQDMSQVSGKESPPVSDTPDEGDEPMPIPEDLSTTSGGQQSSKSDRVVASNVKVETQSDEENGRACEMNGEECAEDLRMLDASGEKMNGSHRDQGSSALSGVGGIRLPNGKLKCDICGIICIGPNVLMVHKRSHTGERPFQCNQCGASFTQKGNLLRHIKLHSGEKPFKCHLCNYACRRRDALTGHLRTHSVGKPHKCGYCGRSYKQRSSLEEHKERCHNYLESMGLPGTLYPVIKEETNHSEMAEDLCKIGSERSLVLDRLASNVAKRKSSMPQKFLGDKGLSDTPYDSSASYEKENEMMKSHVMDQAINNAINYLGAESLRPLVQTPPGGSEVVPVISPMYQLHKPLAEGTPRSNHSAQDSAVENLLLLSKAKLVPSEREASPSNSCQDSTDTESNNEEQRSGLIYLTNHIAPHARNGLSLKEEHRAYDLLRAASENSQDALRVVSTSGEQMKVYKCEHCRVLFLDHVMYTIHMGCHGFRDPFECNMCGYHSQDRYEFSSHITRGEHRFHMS
T1 sequence (Q96SW2 whole entry): as the sequence (Q96SW2 whole entry) above
T1 sequence (Q16531 whole entry partner): as the sequence (Q16531 whole entry partner) above
T5 sequence (P30291 whole entry): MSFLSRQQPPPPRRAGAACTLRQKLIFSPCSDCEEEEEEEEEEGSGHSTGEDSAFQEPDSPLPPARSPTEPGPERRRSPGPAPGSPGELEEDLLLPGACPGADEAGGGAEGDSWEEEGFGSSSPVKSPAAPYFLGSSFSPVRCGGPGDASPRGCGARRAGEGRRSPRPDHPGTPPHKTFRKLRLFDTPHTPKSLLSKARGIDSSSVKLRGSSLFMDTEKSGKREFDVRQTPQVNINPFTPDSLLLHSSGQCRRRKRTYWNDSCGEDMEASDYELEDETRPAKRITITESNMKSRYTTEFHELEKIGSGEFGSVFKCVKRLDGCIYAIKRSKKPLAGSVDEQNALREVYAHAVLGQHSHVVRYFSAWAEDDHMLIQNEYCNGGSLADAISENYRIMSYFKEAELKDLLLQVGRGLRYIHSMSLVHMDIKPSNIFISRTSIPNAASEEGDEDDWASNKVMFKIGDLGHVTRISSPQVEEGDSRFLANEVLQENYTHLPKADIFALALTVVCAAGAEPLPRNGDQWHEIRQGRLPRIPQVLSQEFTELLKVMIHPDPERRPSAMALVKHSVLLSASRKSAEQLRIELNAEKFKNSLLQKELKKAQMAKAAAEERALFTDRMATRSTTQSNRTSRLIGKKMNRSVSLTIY
T5 sequence (Q96SW2 whole entry): as the sequence (Q96SW2 whole entry) above
T5 sequence (Q16531 whole entry partner): as the sequence (Q16531 whole entry partner) above
T3 sequence (Q9UKS7 whole entry): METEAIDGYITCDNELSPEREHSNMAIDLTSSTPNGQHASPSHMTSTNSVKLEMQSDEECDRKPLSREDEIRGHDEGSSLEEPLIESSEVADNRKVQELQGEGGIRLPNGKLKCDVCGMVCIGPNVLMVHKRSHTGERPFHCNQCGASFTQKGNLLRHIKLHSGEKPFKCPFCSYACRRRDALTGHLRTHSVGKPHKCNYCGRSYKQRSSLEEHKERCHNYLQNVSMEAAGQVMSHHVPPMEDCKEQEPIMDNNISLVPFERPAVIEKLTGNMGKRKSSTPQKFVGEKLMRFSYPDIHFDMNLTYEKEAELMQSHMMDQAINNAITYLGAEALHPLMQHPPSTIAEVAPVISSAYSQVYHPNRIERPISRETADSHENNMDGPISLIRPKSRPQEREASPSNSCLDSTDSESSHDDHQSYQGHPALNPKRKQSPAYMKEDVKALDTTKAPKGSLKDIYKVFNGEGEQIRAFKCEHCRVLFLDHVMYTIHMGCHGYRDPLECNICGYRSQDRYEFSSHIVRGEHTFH
T3 sequence (Q96SW2 whole entry): as the sequence (Q96SW2 whole entry) above
T3 sequence (Q16531 whole entry partner): as the sequence (Q16531 whole entry partner) above
T2 sequence (P48729 whole entry): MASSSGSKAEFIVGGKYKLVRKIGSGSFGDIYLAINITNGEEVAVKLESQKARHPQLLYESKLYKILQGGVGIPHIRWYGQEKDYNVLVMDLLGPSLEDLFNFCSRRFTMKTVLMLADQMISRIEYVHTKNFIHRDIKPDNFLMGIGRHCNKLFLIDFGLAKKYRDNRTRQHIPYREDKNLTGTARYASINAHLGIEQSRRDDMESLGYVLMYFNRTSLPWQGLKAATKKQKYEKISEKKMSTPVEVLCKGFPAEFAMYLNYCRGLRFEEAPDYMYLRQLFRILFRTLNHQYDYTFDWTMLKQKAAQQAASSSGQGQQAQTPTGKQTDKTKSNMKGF
T2 sequence (Q96SW2 whole entry): as the sequence (Q96SW2 whole entry) above
T2 sequence (Q16531 whole entry partner): as the sequence (Q16531 whole entry partner) above

Turning to `O=C1CCN(N2Cc3cc(CN4CCN(Cc5ccccc5-c5ccc(Cl)cc5)CC4)ccc3C2=O)C(=O)N1` [GT-06433, 1-(5-((4-((4′-chloro-[1,1′-biphenyl]-2-yl)methyl)piperazin-1-yl)methyl)-1-oxoisoindolin-2-yl)dihydropyrimidine-2,4(1H,3H)-dione], on IKZF1, the “IKZF1 substrate protein remaining %” value is “A (0% ≤ substrate protein remaining % ≤80%)”. In addition, on CK1α, the “CK1α substrate protein remaining %” value is “B (80%< substrate protein remaining % ≤100%)”. The “IKZF2 substrate protein remaining %” value at IKZF2 is on record as “A (0% ≤ substrate protein remaining % ≤80%)”. For the same compound, on IKZF3, the “IKZF3 substrate protein remaining %” value is on record as “A (0% ≤ substrate protein remaining % ≤80%)”. In addition, the “WEE1 substrate protein remaining %” value on WEE1 was “A (0% ≤ substrate protein remaining % ≤80%)”. Moreover, at GSPT1, the “GSPT1 substrate protein remaining %” value was “A (0% ≤ substrate protein remaining % ≤80%)”.

On to `Cc1ccsc1C1=CCN(Cc2ccc3c(c2)C(=O)N(N2CCC(=O)NC2=O)C3=O)CC1` [GT-06434, 2-(2,4-dioxotetrahydropyrimidin-1(2H)-yl)-5-((4-(3-methylthiophen-2-yl)-3,6-dihydropyridin-1(2H)-yl)methyl)isoindoline-1,3-dione], for which the “IKZF1 substrate protein remaining %” value at IKZF1 was “B (80%< substrate protein remaining % ≤100%)”. In addition, on CK1α, the “CK1α substrate protein remaining %” value is given as “B (80%< substrate protein remaining % ≤100%)”. In addition, the “IKZF2 substrate protein remaining %” value at IKZF2 is recorded as “A (0% ≤ substrate protein remaining % ≤80%)”. For the same compound, the “IKZF3 substrate protein remaining %” value on IKZF3 was “A (0% ≤ substrate protein remaining % ≤80%)”. Also, the “WEE1 substrate protein remaining %” value on WEE1 is “A (0% ≤ substrate protein remaining % ≤80%)”. Further, at GSPT1, the “GSPT1 substrate protein remaining %” value is “A (0% ≤ substrate protein remaining % ≤80%)”.

Consider `O=C1CCN(N2C(=O)c3ccc(CN4CC=C(c5ccsc5)CC4)cc3C2=O)C(=O)N1` [GT-06435, 2-(2,4-dioxotetrahydropyrimidin-1(2H)-yl)-5-((4-(thiophen-3-yl)-3,6-dihydropyridin-1(2H)-yl)methyl)isoindoline-1,3-dione], for which the “IKZF1 substrate protein remaining %” value on IKZF1 is on record as “B (80%< substrate protein remaining % ≤100%)”. The “CK1α substrate protein remaining %” value on CK1α is listed as “B (80%< substrate protein remaining % ≤100%)”. The “IKZF2 substrate protein remaining %” value on IKZF2 is recorded as “A (0% ≤ substrate protein remaining % ≤80%)”. Moreover, the “IKZF3 substrate protein remaining %” value on IKZF3 is reported as “A (0% ≤ substrate protein remaining % ≤80%)”. Further, the “WEE1 substrate protein remaining %” value at WEE1 is “A (0% ≤ substrate protein remaining % ≤80%)”. The “GSPT1 substrate protein remaining %” value on GSPT1 was “A (0% ≤ substrate protein remaining % ≤80%)”.

In the case of `C[C@@H]1CN(C(c2ccccc2)c2ccccc2)CCN1Cc1ccc2c(c1)CN(N1CCC(=O)NC1=O)C2=O` [GT-06448, (R)-1-(5-((4-benzhydryl-2-methylpiperazin-1-yl)methyl)-1-oxoisoindolin-2-yl)dihydropyrimidine-2,4(1H,3H)-dione], the “IKZF1 substrate protein remaining %” value at IKZF1 is listed as “B (80%< substrate protein remaining % ≤100%)”. At CK1α, the “CK1α substrate protein remaining %” value is recorded as “B (80%< substrate protein remaining % ≤100%)”. Further, the “IKZF2 substrate protein remaining %” value at IKZF2 is “A (0% ≤ substrate protein remaining % ≤80%)”. The “IKZF3 substrate protein remaining %” value at IKZF3 is “A (0% ≤ substrate protein remaining % ≤80%)”. Moreover, the “WEE1 substrate protein remaining %” value on WEE1 is recorded as “B (80%< substrate protein remaining % ≤100%)”. Further, the “GSPT1 substrate protein remaining %” value at GSPT1 is recorded as “A (0% ≤ substrate protein remaining % ≤80%)”.

Turning to `C[C@@H]1CN(C(c2ccccc2)c2ccccc2)CCN1Cc1ccc2c(c1)C(=O)N(N1CCC(=O)NC1=O)C2=O` [GT-06449, (R)-5-((4-benzhydryl-2-methylpiperazin-1-yl)methyl)-2-(2,4-dioxotetrahydropyrimidin-1(2H)-yl)isoindoline-1,3-dione], at IKZF1, the “IKZF1 substrate protein remaining %” value is listed as “B (80%< substrate protein remaining % ≤100%)”. For the same compound, the “CK1α substrate protein remaining %” value on CK1α is “B (80%< substrate protein remaining % ≤100%)”. The “IKZF2 substrate protein remaining %” value on IKZF2 was “A (0% ≤ substrate protein remaining % ≤80%)”. The “IKZF3 substrate protein remaining %” value at IKZF3 is listed as “A (0% ≤ substrate protein remaining % ≤80%)”. Moreover, on WEE1, the “WEE1 substrate protein remaining %” value is “B (80%< substrate protein remaining % ≤100%)”. The “GSPT1 substrate protein remaining %” value on GSPT1 is given as “A (0% ≤ substrate protein remaining % ≤80%)”.

As for `O=C1CCN(N2Cc3cc(CN4CC5CCC4CN5C(c4ccccc4)c4ccccc4)ccc3C2=O)C(=O)N1` (stereo not drawn) [GT-06450, 1-(5-((5-benzhydryl-2,5-diazabicyclo[2.2.2]octan-2-yl)methyl)-1-oxoisoindolin-2-yl)dihydropyrimidine-2,4(1H,3H)-dione], the “IKZF1 substrate protein remaining %” value on IKZF1 was “B (80%< substrate protein remaining % ≤100%)”. Also, the “CK1α substrate protein remaining %” value on CK1α was “B (80%< substrate protein remaining % ≤100%)”. Besides, the “IKZF2 substrate protein remaining %” value on IKZF2 is given as “A (0% ≤ substrate protein remaining % ≤80%)”. Also, the “IKZF3 substrate protein remaining %” value at IKZF3 is on record as “A (0% ≤ substrate protein remaining % ≤80%)”. Also, the “WEE1 substrate protein remaining %” value on WEE1 is listed as “A (0% ≤ substrate protein remaining % ≤80%)”. Also, the “GSPT1 substrate protein remaining %” value on GSPT1 is “A (0% ≤ substrate protein remaining % ≤80%)”.

Turning to `O=C1CCN(N2C(=O)c3ccc(CN4CC5CCC4CN5C(c4ccccc4)c4ccccc4)cc3C2=O)C(=O)N1` (stereo not drawn) [GT-06451, 5-((5-benzhydryl-2,5-diazabicyclo[2.2.2]octan-2-yl)methyl)-2-(2,4-dioxotetrahydropyrimidin-1(2H)-yl)isoindoline-1,3-dione], on IKZF1, the “IKZF1 substrate protein remaining %” value is reported as “B (80%< substrate protein remaining % ≤100%)”. Besides, on CK1α, the “CK1α substrate protein remaining %” value is “B (80%< substrate protein remaining % ≤100%)”. For the same compound, the “IKZF2 substrate protein remaining %” value on IKZF2 is “B (80%< substrate protein remaining % ≤100%)”. Moreover, the “IKZF3 substrate protein remaining %” value on IKZF3 was “B (80%< substrate protein remaining % ≤100%)”. For the same compound, at WEE1, the “WEE1 substrate protein remaining %” value was “A (0% ≤ substrate protein remaining % ≤80%)”. At GSPT1, the “GSPT1 substrate protein remaining %” value is recorded as “B (80%< substrate protein remaining % ≤100%)”.

On to `O=C1CCN(N2Cc3cc(CN4CC5CCC(C4)N5C(c4ccccc4)c4ccccc4)ccc3C2=O)C(=O)N1` [GT-06452, 1-(5-((8-benzhydryl-3,8-diazabicyclo[3.2.1]octan-3-yl)methyl)-1-oxoisoindolin-2-yl)dihydropyrimidine-2,4(1H,3H)-dione], for which, on IKZF1, the “IKZF1 substrate protein remaining %” value is reported as “B (80%< substrate protein remaining % ≤100%)”. In addition, the “CK1α substrate protein remaining %” value on CK1α was “B (80%< substrate protein remaining % ≤100%)”. Also, at IKZF2, the “IKZF2 substrate protein remaining %” value is listed as “B (80%< substrate protein remaining % ≤100%)”. At IKZF3, the “IKZF3 substrate protein remaining %” value is reported as “B (80%< substrate protein remaining % ≤100%)”. Further, the “WEE1 substrate protein remaining %” value on WEE1 is reported as “A (0% ≤ substrate protein remaining % ≤80%)”. Moreover, on GSPT1, the “GSPT1 substrate protein remaining %” value was “B (80%< substrate protein remaining % ≤100%)”.

For `O=C1CCN(N2C(=O)c3ccc(CN4CC5CCC(C4)N5C(c4ccccc4)c4ccccc4)cc3C2=O)C(=O)N1` [GT-06453, 5-((8-benzhydryl-3,8-diazabicyclo[3.2.1]octan-3-yl)methyl)-2-(2,4-dioxotetrahydropyrimidin-1(2H)-yl)isoindoline-1,3-dione], the “IKZF1 substrate protein remaining %” value on IKZF1 is “B (80%< substrate protein remaining % ≤100%)”. Further, at CK1α, the “CK1α substrate protein remaining %” value is “B (80%< substrate protein remaining % ≤100%)”. Further, the “IKZF2 substrate protein remaining %” value at IKZF2 is “A (0% ≤ substrate protein remaining % ≤80%)”. The “IKZF3 substrate protein remaining %” value at IKZF3 is given as “B (80%< substrate protein remaining % ≤100%)”. On WEE1, the “WEE1 substrate protein remaining %” value is “B (80%< substrate protein remaining % ≤100%)”. Moreover, the “GSPT1 substrate protein remaining %” value on GSPT1 is “B (80%< substrate protein remaining % ≤100%)”.

Turning to `O=C1CCN(N2Cc3cc(CN4C5CCC4CN(C(c4ccccc4)c4ccccc4)C5)ccc3C2=O)C(=O)N1` [GT-06454, 1-(5-((3-benzhydryl-3,8-diazabicyclo[3.2.1]octan-8-yl)methyl)-1-oxoisoindolin-2-yl)dihydropyrimidine-2,4(1H,3H)-dione], at IKZF1, the “IKZF1 substrate protein remaining %” value is “B (80%< substrate protein remaining % ≤100%)”. The “CK1α substrate protein remaining %” value on CK1α is recorded as “B (80%< substrate protein remaining % ≤100%)”. Also, the “IKZF2 substrate protein remaining %” value at IKZF2 is on record as “B (80%< substrate protein remaining % ≤100%)”. Further, the “IKZF3 substrate protein remaining %” value on IKZF3 is “B (80%< substrate protein remaining % ≤100%)”. For the same compound, the “WEE1 substrate protein remaining %” value at WEE1 is reported as “A (0% ≤ substrate protein remaining % ≤80%)”. Moreover, on GSPT1, the “GSPT1 substrate protein remaining %” value was “B (80%< substrate protein remaining % ≤100%)”.

For the compound `O=C1CCN(N2C(=O)c3ccc(CN4C5CCC4CN(C(c4ccccc4)c4ccccc4)C5)cc3C2=O)C(=O)N1` [GT-06455, 5-((3-benzhydryl-3,8-diazabicyclo[3.2.1]octan-8-yl)methyl)-2-(2,4-dioxotetrahydropyrimidin-1(2H)-yl)isoindoline-1,3-dione], the “IKZF1 substrate protein remaining %” value at IKZF1 was “B (80%< substrate protein remaining % ≤100%)”. Also, the “CK1α substrate protein remaining %” value at CK1α was “B (80%< substrate protein remaining % ≤100%)”. Moreover, on IKZF2, the “IKZF2 substrate protein remaining %” value is given as “B (80%< substrate protein remaining % ≤100%)”. Further, the “IKZF3 substrate protein remaining %” value at IKZF3 is recorded as “B (80%< substrate protein remaining % ≤100%)”. Also, the “WEE1 substrate protein remaining %” value on WEE1 is listed as “A (0% ≤ substrate protein remaining % ≤80%)”. In addition, the “GSPT1 substrate protein remaining %” value at GSPT1 is “B (80%< substrate protein remaining % ≤100%)”.
